Measured values taken from US20150119698A1, “Compositions Comprising Near-Infrared Fluorescent Particles And Uses Thereof For Imaging Activated Immune Cells In the CNS” (priority 2012, published 2015).

How the values were obtained:
[1] = system: brain of mice following infection with Plasmodium berghei ANKA or naïve mice; test: Probe distribution into the CNS in experimental cerebral malaria, images 4 hours post injection; type: in vivo; details: tail vein injection
[2] = system: brains of mice 6 days post infection with P. berghei ANKA versus naïve mice; details: mouse, in vivo
Method: In an additional experiment, C57 black mice were infected with 80,000 parasites (P. berghei ANKA). […] Mice were scanned by IVIS™ optical imager. The measurements were performed for 5 hours. For each mouse, the intensity of brain ICG emission was compared to that of the foot. […] Five hours post injection mice were sacrificed and brains were scanned by TYPHOON™ imager.

Question: Which results are given for CC1(C)C(/C=C/C=C/C=C/C=C2\N(CCCCS(=O)(=O)O)c3ccc4ccccc4c3C2(C)C)=[N+](CCCCS(=O)(=O)[O-])c2ccc3ccccc3c21 [free ICG, Indocyanine green]?
Answer: uptake into the brain of diseased mice ([1]; mice infected with Plasmodium berghei ANKA): but not free ICG, were preferentially uptaken into the brain; fluorescence in the brain of naïve mice ([1]; naïve mice): no significant fluorescence; brain emission, infected versus naïve mice (statistical difference) [2]: not statistically different
